Data on 25 molecules can be found in ChEMBL document CHEMBL5244255, “An insight on medicinal attributes of 1,2,4-triazoles” (Eur J Med Chem, 2020).

For one series, the system named is HT-29. Kind of series: Antiproliferative activity against human HT-29 cells assessed as cell growth inhibition incubated for 48 hrs by MTT assay. The note with it: HT-29, 48 h. Type of series: functional, cell-based.
For the next series, the system named is Jurkat. The series is described as follows: Antiproliferative activity against human jurkat cells assessed as cell growth inhibition incubated for 48 hrs by MTT assay. The format is functional, cell-based.
The subject of series [1] is MCF7. The series is described as follows: Antiproliferative activity against human MCF7 cells assessed as cell growth inhibition incubated for 48 hrs by MTT assay. The note with it: MCF7, 48 h. The format is functional, cell-based.
The next series concerns HeLa. The series is described as follows: Antiproliferative activity against human HeLa cells assessed as cell growth inhibition incubated for 48 hrs by MTT assay. Type of series: functional, cell-based. Background: Formazan colour is commonly taken as a measure of viable cells.
The next series has as its system RS4-11. The series is described as follows: Antiproliferative activity against human RS4-11 cells assessed as cell growth inhibition incubated for 48 hrs by MTT assay. The format is functional, cell-based. Conditions: RS4-11, 48 h.
For a further series, the target named is Tubulin (Bos taurus, UniProt Q6B856+Q862L2+Q862F3). Kind of series: Inhibition of bovine brain tubulin polymerization incubated for 20 mins in presence of GTP.
The test system of the next series is Pseudomonas aeruginosa. The series is described as follows: Antibacterial activity against Pseudomonas aeruginosa ATCC 27853 assessed as bacterial growth inhibition by double micro dilution method. The format is functional.
Series [2] deals with Staphylococcus aureus. The series is described as follows: Antibacterial activity against Staphylococcus aureus ATCC 25923 assessed as bacterial growth inhibition by double micro dilution method. The format is functional.
The test system of another series is Escherichia coli. Kind of series: Antibacterial activity against Escherichia coli ATCC 25922 assessed as bacterial growth inhibition by double micro dilution method. The format is functional.
The test system of the next series is Enterococcus faecalis. Kind of series: Antibacterial activity against Enterococcus faecalis ATCC 29212 assessed as bacterial growth inhibition by double micro dilution method. Type of series: functional.
In series [3] the test system is Acinetobacter haemolyticus. Kind of series: Antibacterial activity against Acinetobacter haemolyticus ATCC 19002 assessed as bacterial growth inhibition by double micro dilution method. Type of series: functional.
For the next series, the system named is Klebsiella pneumoniae. The series is described as follows: Antibacterial activity against Klebsiella pneumoniae ATCC 13883 assessed as bacterial growth inhibition by double micro dilution method. Type of series: functional.
In series [4] the test system is Xanthomonas oryzae pv. oryzae. The series is described as follows: Antibacterial activity against Xanthomonas oryzae pv. oryzae assessed as bacterial growth inhibition by turbidimetric method. Type of series: functional, organism-based.
The test system of series [5] is Plasmodium falciparum. Kind of series: microbe, parasite or virus in culture.
In series [6] the test system is Xanthomonas oryzae pv. oryzae. The series is described as follows: Antibacterial activity against Xanthomonas oryzae pv. oryzae assessed as bacterial growth inhibition. The format is functional, organism-based.
The test system of series [7] is Mycobacterium tuberculosis. The series is described as follows: Antimycobacterial activity against Mycobacterium tuberculosis H37Rv measured after 7 days. The format is functional. The note with it: 168 h, time 7 day.
Another series concerns the target DNA gyrase (Escherichia coli, UniProt P0AES4+P0AES6). The series is described as follows: Inhibition of Escherichia coli DNA gyrase supercoiling activity by Microplate Assay kit method. Type of series: protein-complex assay.
Series [8] relates to Leishmania major. Kind of series: Potency index, ratio of test compound IC50 to miltefosine IC50 for antileishmanial activity against promastigotes stage of leishmania major. Type of series: functional.
For series [9], the system named is Leishmania major. Kind of series: Potency index, ratio of test compound IC50 to amphotericin B IC50 for antileishmanial activity against promastigotes stage of leishmania major. Type of series: functional.
In series [10] the test system is Leishmania major. Kind of series: Antileishmanial activity against promastigotes stage of Leishmania major. Type of series: functional, organism-based.
Series [11] relates to Rattus norvegicus. The series is described as follows: Antiinflammatory activity in rat assessed as reduction in carrageenan induced edema at 10 mg/kg, po measured after 4 to 5 hrs relative to control. The format is functional. The note with it: time 4-5 hrs. Also noted: scale not given: the % may be the effect or the level left. In general terms: The carrageenan paw model is a standard test of acute inflammation.

In series [12] the test system is Mus musculus. The series is described as follows: Anticonvulsant activity in ip dosed mouse. The format is functional.
Series [13] is described as follows: Protection index, ratio of TD50 for neurotoxicity in ip dosed mouse to ED50 for anticonvulsant activity in ip dosed mouse. Type of series: toxicity, organism-based. Conditions: in vivo, read-out: Ratio TD50/ED50.
The test system of series [14] is Trypanosoma cruzi. The series is described as follows: Trypanocidal activity against amastigote stage of Trypanosoma cruzi. The format is functional, organism-based.
Series [15] concerns Trypanosoma cruzi. The series is described as follows: Trypanocidal activity against epimastigote stage of Trypanosoma cruzi. Type of series: functional, organism-based.
The nature of series [16]: Inhibition of 5 alpha reductase (unknown origin).
The species entered for series [17] is Rattus norvegicus. Kind of series: Bronchodilator activity in Sprague-Dawley rat. The format is functional, organism-based.
Series [18] deals with Staphylococcus aureus. Kind of series: Antibacterial activity against Staphylococcus aureus assessed as bacterial growth inhibition incubated for 16 hrs. Type of series: functional.
The next series concerns Candida albicans. The series is described as follows: Antifungal activity against Candida albicans assessed as fungal growth inhibition incubated for 16 hrs. The format is functional.
Series [19] relates to MCF7. Kind of series: Anticancer activity against human MCF7 cells assessed a cell growth inhibition incubated for 48 hrs by SRB assay. The format is functional, cell-based. The note with it: MCF7, 48 h. (In general: Sulforhodamine B stains cellular protein and so reports cell mass.)
The test system of series [20] is Staphylococcus aureus. The series is described as follows: Antibacterial activity against Methicillin-resistant Staphylococcus aureus assessed as bacterial growth inhibition incubated for 24 hrs. The format is functional.
Series [21] has as its system Staphylococcus aureus. The series is described as follows: Antibacterial activity against Staphylococcus aureus 6538 assessed as bacterial growth inhibition incubated for 24 hrs. Type of series: functional.
In series [22] the test system is Mycobacterium tuberculosis. The series is described as follows: Antimycobacterial activity against Mycobacterium tuberculosis H37Rv measured after 8 to 9 days. Type of series: functional. Conditions: time 8-9 day.
Series [23] in a line: Inhibition of Mycobacterium tuberculosis shikimate dehydrogenase.
In series [24] the test system is Mus musculus. Kind of series: Anticonvulsant activity in ip dosed mouse assessed as protection against PTZ-induced seizure. Type of series: functional.
The subject of series [25] is Plasmodium falciparum. The series is described as follows: Antimalarial activity against Chloroquine resistant Plasmodium falciparum W2. Type of series: functional, organism-based.

Values after ≈ are worked out from the molar mass of the structure shown.

`COc1ccc(-c2nc(N)n(C(=O)c3cc(OC)c(OC)c(OC)c3)n2)cc1`: the IC50 in the series with HT-29 is under 1000 nM; in the series on Jurkat it was under 1000 nM; with MCF7 [1] it was under 1000 nM; in the series on HeLa, under 1000 nM; in the series with RS4-11, under 1000 nM; on Tubulin, 970 nM.
As to `O=C(O)c1cn(C2CC2)c2cc(N3CCN(Cn4nc(CN5CCN(c6ccccc6)CC5)n(-c5ccccc5)c4=S)CC3)c(F)cc2c1=O`, the MIC (in the series with Pseudomonas aeruginosa; in the series on Staphylococcus aureus [2]; in the series on Escherichia coli; with Enterococcus faecalis; in series [3]; in the series with Klebsiella pneumoniae) was 0.125 µg/mL (≈ 0.18 µM) throughout.
As to `CCOC(=O)c1nc(Sc2nnc3c(Cl)cccn23)c2ccccc2n1`, the EC50 in series [4] was found to be 7.2 µg/mL (≈ 18.7 µM).
Turning to `Nc1cc(Cl)c(S(N)(=O)=O)cc1-c1nnc(S)n1-c1ccccc1`, half-maximal inhibition with Plasmodium falciparum [5] (IC50) was put at 0.023 µg/mL (≈ 0.0602 µM).
On to `S=c1[nH]nc(NCNc2n[nH]c(=S)s2)s1`, for which the EC50 in series [4] was 89.8 µg/mL (≈ 323 µM); in [6], 85.6 µg/mL (≈ 307 µM).
In series [7], `O=[N+]([O-])c1ncn(CCCCNS(=O)(=O)c2scc(Cl)c2Cl)n1` yielded an MIC of 1.56 µg/mL (≈ 3.9 µM).
At DNA gyrase, `CCn1cc(-c2nc(/N=C/c3ccc(Br)cc3)n[nH]2)c(=O)c2cc(Br)c(C)nc21` had an IC50 of 6220 nM.
For the molecule `CC(C)C(C(=O)O)N1C(N)=NNC1c1ccccc1O` (stereo not drawn), the “Ratio IC50” value in the series with Leishmania major [8] and with Leishmania major [9] was 36 in each case. The molecule also yielded an IC50 with Leishmania major [10] of 0.0312 µg/mL (≈ 0.112 µM).
With `Clc1cccc(Cl)c1Nc1ccccc1Cc1nncn1Nc1nc2ccccc2s1`, in the series on Rattus norvegicus [11], the Activity turned out to be 85.31%.
The molecule `NC(=O)N1c2ccccc2C=Cc2ccccc21` [CARBAMAZEPINE] displayed an ED50 with Mus musculus [12] of 11.8 mg/kg. In addition, the selectivity ratio in [13] is 6.4.
For `S=c1[nH]nc(/C=C/C=C/c2ccc3c(c2)OCO3)n1C1CCCCC1`, the IC50 in the series with Trypanosoma cruzi [14] was 8870 nM; in the series with Trypanosoma cruzi [15] it was 18300 nM.
Taken in the same sequence, the figures for `CCCCSC1NN=C(/C=C/C=C/c2ccc3c(c2)OCO3)N1C1CCCCC1` (stereo not drawn) were 3610 nM and 3180 nM.
On to `CC(C)(C#N)c1cc(Cn2cncn2)cc(C(C)(C)C#N)c1`, for which the ED50 in series [16] was 1090 nM.
`Cc1nc2[nH]cc(-c3n[nH]c(=S)n3-c3ccccc3)c(=O)n2n1`: a half-maximal response in the series filed under Rattus norvegicus [17] (EC50) required 18600 nM.
For `COc1ccc(/C=N/n2c(S)nnc2CNC(=O)c2ccc(C)cc2)cc1OC`, the MIC with Staphylococcus aureus [18] and in the series on Candida albicans was 3.12 µg/mL (≈ 7.59 µM) each time.
The molecule `CC/C(=C(\c1ccccc1)c1ccc(OCCN(C)C)cc1)c1ccccc1` [TAMOXIFEN] gave an IC50 in the series on MCF7 [19] of 8.38 µg/mL (≈ 22.6 µM).
In the case of `O=c1[nH]nc2n1-c1ccc(OCc3ccc(F)cc3)cc1OCC2`, the ED50 in the series on Mus musculus [12] was determined as 26.3 mg/kg. Besides, in series [13], the selectivity ratio was found to be 12.6.
`COc1cc(C(=O)n2nc(-c3ccc(C)cc3)nc2N)cc(OC)c1OC`: the IC50 in the series with HT-29 is under 1000 nM; in the series on Jurkat, under 1000 nM; in the series with MCF7 [1], under 1000 nM; in the series with HeLa, under 1000 nM; with RS4-11, under 1000 nM; at Tubulin it was 660 nM.
Turning to `CSc1nc(Cl)cc(Sc2nnc(-c3cc(C(F)(F)F)cc(C(F)(F)F)c3)[nH]2)n1`, the values for the MIC in the series on Staphylococcus aureus [20] and in the series with Staphylococcus aureus [21] were 0.75 µg/mL (≈ 1.59 µM) and 1.8 µM (≈ 0.849 µg/mL), respectively.
In turn, `O=[N+]([O-])c1ccc(C2=Nn3c(nnc3-c3ccc(Br)cc3)CC2)cc1` gave an MIC in [22] of 0.25 µg/mL (≈ 0.628 µM). Besides, the IC50 in series [23] was 86.39 µg/mL (≈ 217 µM).
For `CCn1c(CN2CCN(c3ccccc3)CC2)nn(CN2CCN(c3cc4c(cc3F)c(=O)c(C(=O)O)cn4C3CC3)CC2)c1=S`, the MIC (with Pseudomonas aeruginosa; in the series with Staphylococcus aureus [2]; with Escherichia coli; with Enterococcus faecalis; in [3]; in the series with Klebsiella pneumoniae) was 0.125 µg/mL (≈ 0.193 µM) in each case.
Take `CCCOc1ccc(-c2csc3nncn23)cc1`: in the series with Mus musculus [24], the ED50 came out at 63.4 mg/kg and the TD50 came to 106 mg/kg. Also, in series [13], the selectivity ratio was found to be 1.9.
With `O=c1[nH]nc2n1-c1ccc(OCc3ccc(F)cc3)cc1SC2`, in the series with Mus musculus [12], the ED50 came to 9.2 mg/kg. For the same molecule, the selectivity ratio in series [13] was determined as 15.4.
The molecule `Cc1cc(Nc2ccc(Cl)c(Cl)c2)n2nc(C(F)(F)F)nc2n1` yielded an IC50 with Plasmodium falciparum [25] of 23 nM.
In series [7], `O=[N+]([O-])c1ncn(CCCCNS(=O)(=O)c2sccc2Cl)n1` registered an MIC of 3.13 µg/mL (≈ 8.56 µM).

For orientation: IC50 means the concentration at which inhibition is half-maximal. By MIC is commonly meant the lowest concentration found to suppress growth. As usually defined, the EC50 is the concentration at which the effect is half-maximal.
